Measured values as given in US8835462B2, “Macrocyclic picolinamides as fungicides” (Dow AgroSciences LLC, priority 2012, dated 2014).
Read-outs that look alike come from different tables or passages of the source.

Experiments:
Format in all cases: in vivo
Uncinula necator = test: Grape powdery mildew (UNCINE) fungicidal activity; conditions: Erysiphe necator, 24 h, 1 Day Protectant, read-out: Disease Control UNCINE 1DP
Method: Technical grades of materials were dissolved in acetone, which were then mixed with nine volumes of water containing 110 ppm Triton X-100. The fungicide solutions were applied onto wheat seedlings using an automated booth sprayer to run-off. All sprayed plants were allowed to air dry prior to further handling. Wheat plants (variety Yuma) were grown from seed in a greenhouse in 50% mineral soil/50% soil-less Metro mix until the first leaf was fully emerged, with 7-10 seedlings per pot. These plants were inoculated with an aqueous spore suspension of Septoria tritici either prior to or after fungicide treatments. After inoculation the plants were kept in 100% relative humidity (one day in a dark dew chamber followed by two to three days in a lighted dew chamber at 20° C.) to permit spores to germinate and infect the leaf. The plants were then transferred to a greenhouse set at 20° C. for disease to develop. When disease symptoms were fully expressed on the 1st leaves of untreated plants, infection levels were assessed on a scale of 0 to 100 percent disease severity. Percent disease control was calculated using the ratio of disease severity on treated plants relative to untreated plants. Evaluation of Fungicidal Activity: Grape Powdery Mildew (Uncinula Necator; Bayer Code […]) Grape seedlings (variety Carignane) were grown in soil-less Metro mix, with one plant per pot, and used in the test when approximately one month old. Plants were inoculated 24 hr after fungicide treatment by shaking spores from infected leaves over test plants. Plants were maintained in a greenhouse set at 20° C. until disease was fully developed. Fungicide formulation, application and disease assessment on the sprayed leaves followed the procedures as described in the Example A.

[1] = tested on: Mycosphaerella graminicola; Anamorph: Septoria tritici; test: Leaf blotch of wheat (SEPTTR) fungicidal activity on wheat seedlings; conditions: Zymoseptoria tritici
Method: Evaluation of Fungicidal Activity: Leaf Blotch of Wheat (Mycosphaerella Graminicola; Anamorph: Septoria tritici; Bayer Code […]) Technical grades of materials were dissolved in acetone, which were then mixed with nine volumes of water containing 110 ppm Triton X-100. The fungicide solutions were applied onto wheat seedlings using an automated booth sprayer to run-off. All sprayed plants were allowed to air dry prior to further handling. Wheat plants (variety Yuma) were grown from seed in a greenhouse in 50% mineral soil/50% soil-less Metro mix until the first leaf was fully emerged, with 7-10 seedlings per pot. These plants were inoculated with an aqueous spore suspension of Septoria tritici either prior to or after fungicide treatments. After inoculation the plants were kept in 100% relative humidity (one day in a dark dew chamber followed by two to three days in a lighted dew chamber at 20° C.) to permit spores to germinate and infect the leaf. The plants were then transferred to a greenhouse set at 20° C. for disease to develop. When disease symptoms were fully expressed on the 1st leaves of untreated plants, infection levels were assessed on a scale of 0 to 100 percent disease severity. Percent disease control was calculated using the ratio of disease severity on treated plants relative to untreated plants.

Puccinia triticina = test: Fungicide mobility (dropline mobility test), wheat brown rust (PUCCRT); conditions: 1 ug/leaf, disease-free zone as percent of distance from marked line to leaf tip; for Dropline Mobility Test PUCCRT 1 DPM: 1 Day Protectant Mobility; for Dropline Mobility Test PUCCRT 3 DCM: 3 Day Curative Mobility
Method: Evaluation of Fungicide Mobility: Wheat Brown Rust (Puccinia Triticina; Synonym: Puccinia recondita f. sp. Tritici; Bayer Code PUCCRT):
“Yuma” wheat seedlings were used in the test. One mg of compound was dissolved in 9 μl of EC blank (emulsifiable concentrate) and 500 μl of acetone. Acetone was then evaporated overnight by leaving the vial open in a fume hood. Two milliliters of water containing 110 ppm Triton X-100 was added to each vial to prepare application solutions. A […] drop of formulated material was applied to a marked line on the adaxial surface 5 cm from the leaf tip of the primary leaves. The primary leaves were kept in a horizontal position. Each treatment had 6 replicates. Plants were inoculated with PUCCRT 1-day after (1DPM) or 3-day prior to (3DCM) compound applications. When rust was fully expressed on primary leaves on control plants, the zone of treated leaves that was disease-free in the acropetal direction was measured with a ruler and converted to percent of the distance from marked line to leaf tip.

[2] = tested on: Glomerella lagenarium; Anamorph: Colletotricum lagenarium; test: Cucumber anthracnose (COLLLA) fungicidal activity; conditions: Colletotrichum orbiculare, 24 h, 1 Day Protectant, read-out: Disease Control COLLLA 1DP
Method: Technical grades of materials were dissolved in acetone, which were then mixed with nine volumes of water containing 110 ppm Triton X-100. The fungicide solutions were applied onto wheat seedlings using an automated booth sprayer to run-off. All sprayed plants were allowed to air dry prior to further handling. Wheat plants (variety Yuma) were grown from seed in a greenhouse in 50% mineral soil/50% soil-less Metro mix until the first leaf was fully emerged, with 7-10 seedlings per pot. These plants were inoculated with an aqueous spore suspension of Septoria tritici either prior to or after fungicide treatments. After inoculation the plants were kept in 100% relative humidity (one day in a dark dew chamber followed by two to three days in a lighted dew chamber at 20° C.) to permit spores to germinate and infect the leaf. The plants were then transferred to a greenhouse set at 20° C. for disease to develop. When disease symptoms were fully expressed on the 1st leaves of untreated plants, infection levels were assessed on a scale of 0 to 100 percent disease severity. Percent disease control was calculated using the ratio of disease severity on treated plants relative to untreated plants. Evaluation of Fungicidal Activity: Cucumber Anthracnose (Glomerella Lagenarium; Anamorph: Colletotricum Lagenarium; Bayer Code COLLLA) Cucumber seedlings (variety Bush Pickle) were propagated in soil-less Metro mix, with each pot having one plant, and used in the test when 12 to 14 days old. Test plants were inoculated with an aqueous spore suspension of Colletotricum lagenarium 24 hr after fungicide treatments. After inoculation the plants were kept in a dew room at 22° C. with 100% relative humidity for 48 hr to permit spores to germinate and infect the leaf. The plants were then transferred to a growth room set at 22° C. for disease to develop. Fungicide formulation, application and disease assessment on the sprayed leaves followed the procedures as described in the Example A.

[3] = 24 h, 1 Day Protectant, read-out: Disease Control SEPTTR 1 DP
[4] = 72 h, 3 Day Curative, read-out: Disease Control SEPTTR 3 DC

SMILES	pest or weed control at 100 ppm (Uncinula necator) [%]	pest or weed control at 100 ppm [1, 3] [%]	pest or weed control at 100 ppm [1, 4] [%]	Dropline Mobility Test PUCCRT 1 DPM (Puccinia triticina)	Dropline Mobility Test PUCCRT 3 DCM (Puccinia triticina)	pest or weed control at 100 ppm [2] [%]
COc1ccnc(C(=O)N[C@H]2COC[C@H](Cc3ccccc3)[C@@H](OCC(C)C)[C@H](C)OC2=O)c1O [Compound 2, N-((3S,7S,8R,9S)-7-benzyl-8-isobutoxy-9-methyl-2-oxo-1,5-dioxonan-3-yl)-3-hydroxy-4-methoxypicolinamide]	0 to 80	80 to 100	80 to 100	B (More than 0-Less than 80)	B (More than 0-Less than 80)	–
COc1ccnc(C(=O)N[C@H]2COC[C@H](Cc3ccccc3)[C@@H](OCC(C)C)[C@H](C)OC2=O)c1OCOC(=O)C(C)C [Compound 3]	80 to 100	80 to 100	80 to 100	B (More than 0-Less than 80)	B (More than 0-Less than 80)	80 to 100
COc1ccnc(C(=O)N[C@H]2COC[C@H](Cc3ccccc3)[C@@H](OCC(C)C)[C@H](C)OC2=O)c1OCOC(=O)C(C)(C)C [Compound 7]	80 to 100	80 to 100	80 to 100	B (More than 0-Less than 80)	B (More than 0-Less than 80)	–
COc1ccnc(C(=O)N[C@H]2COC[C@H](Cc3ccccc3)[C@@H](OCC(C)C)[C@H](C)OC2=O)c1OCOC(C)=O [Compound 8, (2-((3S,7S,8R,9S)-7-benzyl-8-isobutoxy-9-methyl-2-oxo-1,5-dioxonan-3-ylcarbamoyl)-4-methoxypyridin-3-yloxy)methyl acetate]	80 to 100	80 to 100	80 to 100	B (More than 0-Less than 80)	B (More than 0-Less than 80)	80 to 100
COc1ccnc(C(=O)N[C@H]2COC[C@H](Cc3ccccc3)[C@@H](OCC(C)C)[C@H](C)OC2=O)c1OC(C)=O [Compound 9, 2-(((3S,7S,8R,9S)-7-benzyl-8-isobutoxy-9-methyl-2-oxo-1,5-dioxonan-3-yl)carbamoyl)-4-methoxypyridin-3-yl acetate]	80 to 100	80 to 100	80 to 100	B (More than 0-Less than 80)	B (More than 0-Less than 80)	–
COc1ccnc(C(=O)N[C@H]2COC[C@H](Cc3ccccc3)[C@@H](OCC(C)C)[C@H](C)OC2=O)c1OC(=O)OC(C)C [Compound 10, 2-(((3S,7S,8R,9S)-7-benzyl-8-isobutoxy-9-methyl-2-oxo-1,5-dioxonan-3-yl)carbamoyl)-4-methoxypyridin-3-yl isopropyl carbonate]	0 to 80	80 to 100	80 to 100	B (More than 0-Less than 80)	B (More than 0-Less than 80)	–
COc1ccnc(C(=O)N[C@H]2COC[C@H](Cc3ccccc3)[C@@H](OCCC(=O)N(C)C)[C@H](C)OC2=O)c1OCOC(C)=O [Compound 15]	0 to 80	0 to 80	0 to 80	–	–	0 to 80
COCCCO[C@@H]1[C@@H](Cc2ccccc2)COC[C@H](NC(=O)c2nccc(OC)c2OCOC(C)=O)C(=O)O[C@H]1C [Compound 16]	0 to 80	80 to 100	80 to 100	–	–	80 to 100
CCCO[C@@H]1[C@@H](Cc2ccccc2)COC[C@H](NC(=O)c2nccc(OC)c2OCOC(C)=O)C(=O)O[C@H]1C [Compound 22]	80 to 100	80 to 100	80 to 100	B (More than 0-Less than 80)	B (More than 0-Less than 80)	80 to 100
COc1ccnc(C(=O)N[C@H]2COC[C@H](Cc3ccccc3)[C@@H](OCCCC(F)(F)F)[C@H](C)OC2=O)c1OCOC(C)=O [Compound 23]	0 to 80	80 to 100	80 to 100	B (More than 0-Less than 80)	B (More than 0-Less than 80)	80 to 100
COc1ccnc(C(=O)N[C@H]2COC[C@H](Cc3ccccc3)[C@@H](OCC(F)F)[C@H](C)OC2=O)c1OCOC(C)=O [Compound 44]	0 to 80	80 to 100	80 to 100	B (More than 0-Less than 80)	B (More than 0-Less than 80)	–
COc1ccnc(C(=O)N[C@H]2COC[C@H](Cc3ccccc3)[C@@H](OCCC(C)OC)[C@H](C)OC2=O)c1OCOC(C)=O (stereo partly shown) [Compound 46]	0 to 80	80 to 100	80 to 100	A (80-100)	A (80-100)	–
COc1ccnc(C(=O)N[C@H]2COC[C@H](Cc3ccccc3)[C@@H](OC3CCCC3)[C@H](C)OC2=O)c1OCOC(C)=O [Compound 106]	–	80 to 100	80 to 100	–	–	80 to 100
COc1ccnc(C(=O)N[C@H]2COC[C@H](Cc3ccccc3)[C@@H](OC3CCCC3)[C@H](C)OC2=O)c1OC(C)=O [Compound 107]	0 to 80	80 to 100	80 to 100	–	–	80 to 100
COc1ccnc(C(=O)N[C@H]2COC[C@H](Cc3ccccc3)[C@@H](OC3CCCC3)[C@H](C)OC2=O)c1OCOC(=O)C(C)C [Compound 108]	80 to 100	80 to 100	0 to 80	–	–	80 to 100
